Data: patent publication US20060069151A1, “Novel use of lycopene” (priority 2002, published 2006)

Tested on: androgen signalling
Experiment: androgen target gene expression in androgen sensitive target organ tissue
Assay type: in vivo
Settings: after administration; no method, species or dose described

Compound: CC(C)=CCC/C(C)=C/C=C/C(C)=C/C=C/C(C)=C/C=C/C=C(C)/C=C/C=C(C)/C=C/C=C(\C)CCC=C(C)C [lycopene]
- androgen target gene expression in androgen sensitive target organ tissue, as the endpoint and result of androgen signalling: significantly reduced
